Assay [1] addresses T1, ScMreB5 (Spiroplasma citri, UniProt Q8VQG1).
T1 construct: gene mreB5; monomer about 38 kD, forms filaments
T1 sequence (Q8VQG1 1-352): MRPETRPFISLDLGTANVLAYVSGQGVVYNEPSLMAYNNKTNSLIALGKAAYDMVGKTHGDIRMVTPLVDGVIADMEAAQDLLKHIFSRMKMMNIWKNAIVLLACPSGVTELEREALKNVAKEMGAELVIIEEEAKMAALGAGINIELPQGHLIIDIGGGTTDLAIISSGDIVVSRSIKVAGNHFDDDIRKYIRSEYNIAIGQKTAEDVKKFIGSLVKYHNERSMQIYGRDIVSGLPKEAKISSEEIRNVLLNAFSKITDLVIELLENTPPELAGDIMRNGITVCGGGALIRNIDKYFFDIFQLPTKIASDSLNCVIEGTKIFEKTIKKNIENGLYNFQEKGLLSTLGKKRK
The assay can be described thus: X-ray crystal structure, […] Å. To be noted: nucleotide-binding pocket; Mg2+ and K+ bound; 2 mM ADP, 2 mM MgCl2; ADP also co-purifies (HPLC).

The target in assay [2] is T1, ScMreB5. Nature of the assay: thermal shift (SYPRO Orange). To be noted: 2.6 µM protein, protein purified with ADP and MgCl2 added. The assay is classed as binding.

Take `Nc1ncnc2c1ncn2[C@@H]1O[C@H](COP(=O)(O)OP(=O)(O)O)[C@@H](O)[C@H]1O` [ADP]: at ScMreB5 [1], the “X-ray crystal structure, 2.3 Å” value is given as “ScMreB5 also crystallized in the presence of ADP (PDB accession no. 7BVZ)”. Also, the Tm result on ScMreB5 [2] (1 mM ADP) is “Thermal shift assays showed increased stability in the KCl buffer and upon addition of excess ADP”. Consider `Nc1ncnc2c1ncn2[C@@H]1O[C@H](COP(=O)(O)OP(=O)(O)OP(=O)(O)O)[C@@H](O)[C@H]1O` [ATP], for which, at ScMreB5 [2] (1 mM ATP), the Tm entry was “increased stability in the KCl buffer and upon addition of excess ADP or ATP”.

These data come from publication PMC9195046, “Filament organization of the bacterial actin MreB is dependent on the nucleotide state” (The Journal of Cell Biology, 2022).
